From patent publication US11034725B2, “Compositions and methods for treating cardiovascular disease” (Genentech, Inc., priority 2016, dated 2021) come the findings set out here.

Assay [1] has as its target T1, PCSK9Δhelix (Homo sapiens, UniProt Q8NBP7).
T1 construct: Human PCSK9 construct M1-Q692 with an engineered TEV site (residue deletion Y166, R167); made in house; host or cells: CHO
In words: Surface plasmon resonance biosensor-based affinity analysis (Example 4). It is filed as binding. The note with it: for Kd: Table 7, Target PCSK9Δhelix, SPR at 20° C., read-out: Kd.

In assay [2] the target is T1, PCSK9Δhelix. In words: PCSK9Δhelix/Ab20 TR-FRET binding assay. (In TR-FRET formats the signal depends on donor and acceptor labels being close together.)
For the next assay, the system named is His-EGF(A)-Fc. As to the kind of experiment: His-EGF(A)-Fc TR-FRET counterscreen.
The next assay concerns the target PCSK9 (Homo sapiens, UniProt Q8NBP7). As to the kind of experiment: PCSK9/EGF(A) TR-FRET binding assay. The note with it: for IC50: TR-FRET, read-out: PCSK9/EGF(A) IC50.
For assay [3], the target named is T2, PCSK9-R167A:R215A:R218A (PCSK9-AAA) (Homo sapiens, UniProt Q8NBP7, R167A/R215A/R218A).
T2 construct: made in house; host or cells: CHO (transient)
As to the kind of experiment: FXIa cleavage assay of the P′ helix of PCSK9-AAA. The format is biochemical. The conditions noted are these: immunoblot with anti-N-terminal peptide antibody. How it is done: The PCSK9-AAA mutant (2.6 μM) was incubated with 50 nM FXIa (Haematologic Technologies) in Tris buffer (50 mM Tris, 150 mM NaCl, 4 mM CaCl2, pH 8.0) at room temperature for the indicated time periods. […] After SDS-PAGE of the samples, proteins were transferred to a nitrocellulose membrane using iBlot (Invitrogen). Proteins were then probed with a polyclonal rabbit antibody (1:3000) raised against the PCSK9 N-terminal peptide (^153[…]^168 (SEQ ID NO: 5)), followed with HRP-conjugated donkey anti-rabbit antibody (1:5000, GE Healthcare) using iBind (Invitrogen). PCSK9 signals were detected by ECL (GE Healthcare) and visualized by autoradiography.
Proteins were then probed with a polyclonal rabbit antibody (1:3000) raised against the PCSK9 N-terminal peptide (^153[…]^168 (SEQ ID NO: 5)), followed with HRP-conjugated donkey anti-rabbit antibody (1:5000, GE Healthcare) using iBind (Invitrogen). PCSK9 signals were detected by ECL (GE Healthcare) and visualized by autoradiography.
Background: Immunoblotting shows a protein as a band on a membrane.

Assay [4] has as its target T1, PCSK9Δhelix. In words: SPR affinity measurements of peptide binding (Example 8). The conditions noted are these: for Kd: Table 10, binding to PCSK9Δhelix. The protocol:
A Biacore™ T100 or Biacore™ 8K was adjusted to 20° C. The system was primed into assay buffer which consisted of 25 mM HEPES, pH 7.5, 0.15 M NaCl, 0.005% (v/v) Tween® 20, 0.2 mM tris(2-carboxyethyl)phosphine and optionally contained 0.1% (w/v) carboxymethylated dextran (average MW 10 kDa) and 0.2% (w/v) PEG (average MW 3450 Da) in order to reduce potential non-specific binding. Peptides were assayed by capturing fresh PCSK9 or PCSK9Δhelix after each binding regeneration cycle by exploiting a histidine tag and an NTA-sensor chip. The surface was charged with (His)8-tagged PCSK9 (approximately 800 RU captured). […] Compound 19 and Compound 20 were assayed in six serial two-fold dilutions from 100 nM to 3.1 nM. All peptides were analyzed in duplicate by serial injection (50 μL/min for 1 min) of peptide dilution from low to high concentration. The surface was then stripped of target by injecting 0.5 M EDTA, pH 8.0. This sequence was repeated for each peptide binding cycle and blank control cycles.
All SPR data was recorded in duplicate for five, or more serial dilutions, except for the two fusion peptides, which produced extremely low fitting error. Multicycle data (i.e. separate curves for each concentration) and single cycle data (i.e. single curve with serial injection of each concentration) were double referenced and fitted to an interaction model using BIAevaluation software. Peptide binding to PCSK9 produced deviations from a simple 1:1 binding interaction model that required application of a two-state model for determination of Kd while interactions with PCSK9Δhelix conformed well to simple 1:1 binding. Kinetic curvature was poorly defined for rapidly dissociating peptides and in these cases Kd was estimated from a steady-state dose response plot. Kd values were reported with associated standard error, a measure of confidence in that parameter value.

[5] abbreviates: TR-FRET, Example 7, read-out: PCSK9Δhelix/Ab20 IC50.
The mark [6] stands for this setting: Table 8D, disulfide-cyclized extension peptides.
[7] abbreviates: TR-FRET, Table 8D, disulfide-cyclized extension peptides, read-out: PCSK9Δhelix/Ab20 IC50.
The mark [8] stands for this setting: TR-FRET counterscreen, Table 8D, * = some inhibition at highest concentrations, not sufficient to fit an IC50.
Setting [9] is: Table 10, average ±S.D. of three experiments, read-out: Ab20 IC50.

“Also recorded” adds a separate entry of the source. Where two headings read alike, the source gives them in different places. Bridge positions count the residues as written; N and C are the ends. Peptide text beside a SMILES is read from it.

The Kd is the concentration at which binding is half-saturated. Consider `CC[C@H](C)[C@@H]1NC(=O)[C@H](CCCNC(=N)N)NC(=O)[C@H](CCCCN)NC(=O)[C@H](CC(C)C)NC(=O)[C@H](CC(N)=O)NC(=O)[C@H](Cc2c[nH]c3ccccc23)NC(=O)[C@@H](NC(=O)CNC(=O)[C@H](CO)NC(=O)CNC(=O)[C@@H](NC(=O)[C@H](Cc2c[nH]c3ccccc23)NC(=O)[C@H](CC(=O)O)NC(=O)[C@H](CC(C)C)NC(=O)[C@H](Cc2ccc(O)cc2)NC(=O)[C@H](CCC(=O)O)NC(=O)[C@H](CCC(=O)O)NC(=O)[C@H](Cc2c[nH]c3ccccc23)NC(=O)[C@H](CO)NC(=O)[C@@H](NC(=O)[C@H](Cc2ccccc2)NC(=O)[C@@H](NC(=O)[C@@H](NC(C)=O)[C@@H](C)O)C(C)C)[C@@H](C)O)C(C)C)CSSC[C@@H](C(N)=O)NC(=O)CNC(=O)[C@H](CCC(N)=O)NC(=O)[C@H](CO)NC(=O)CNC1=O` [Compound 2] (Ac-TVFTSWEEYLDWVGSGCWNLKRIGSQGC-NH2; disulfide 17-28), for which the Kd at PCSK9Δhelix [1] came to 0.00187 µM. The IC50 on PCSK9Δhelix [2] (setting [5]) was 0.004 µM; in the assay with His-EGF(A)-Fc (counterscreen, Example 7) it was greater than 50 µM.
Turning to `CC[C@H](C)[C@@H]1NC(=O)[C@H](CCCNC(=N)N)NC(=O)[C@H](CCCCN)NC(=O)[C@H](CC(C)C)NC(=O)[C@H](CC(N)=O)NC(=O)[C@H](Cc2c[nH]c3ccccc23)NC(=O)[C@@H](NC(=O)CCCCCNC(=O)[C@@H](NC(=O)[C@H](Cc2c[nH]c3ccccc23)NC(=O)[C@H](CC(=O)O)NC(=O)[C@H](CC(C)C)NC(=O)[C@H](Cc2ccc(O)cc2)NC(=O)[C@H](CCC(=O)O)NC(=O)[C@H](CCC(=O)O)NC(=O)[C@H](Cc2c[nH]c3ccccc23)NC(=O)[C@H](CO)NC(=O)[C@@H](NC(=O)[C@H](Cc2ccccc2)NC(=O)[C@@H](NC(=O)[C@@H](NC(C)=O)[C@@H](C)O)C(C)C)[C@@H](C)O)C(C)C)CSSC[C@@H](C(N)=O)NC(=O)CNC(=O)[C@H](CCC(N)=O)NC(=O)[C@H](CO)NC(=O)CNC1=O` [Compound 17], on PCSK9Δhelix [1], the “Kd range for PCSK9Δhelix binding” value is given as “sub-nanomolar range”. For the same compound, the equilibrium dissociation constant (Kd) on PCSK9Δhelix [1] came out at 0.000123 µM. Besides, the “inhibition in the PCSK9/EGF(A) binding assay” value on PCSK9 was “maintained potency”. Further, the IC50 at PCSK9 (Example 7) was 0.009 µM; on PCSK9Δhelix [2] (setting [5]), 0.001 µM; in the assay on His-EGF(A)-Fc (counterscreen, Example 7) it was greater than 50 µM. For the same compound, the “inhibition in the PCSK9Δhelix/Ab20 binding assay” value at PCSK9Δhelix [2] is “maintained potency”.
As to `CC[C@H](C)[C@@H]1NC(=O)[C@H](CCCNC(=N)N)NC(=O)[C@H](CCC(N)=O)NC(=O)[C@H](CC(C)C)NC(=O)[C@H](CC(N)=O)NC(=O)[C@H](Cc2c[nH]c3ccccc23)NC(=O)[C@@H]2CCCN2C(=O)[C@H]([C@@H](C)CC)NC(=O)[C@H](Cc2ccccc2)NC(=O)[C@@H](NC(=O)CNC(=O)[C@H](CO)NC(C)=O)CSSC[C@@H](C(N)=O)NC(=O)[C@H](CC(C)C)NC(=O)[C@H](CC(C)C)NC(=O)CNC1=O` [Compound 29] (Ac-SGCFIPWNLQRIGLLC-NH2; disulfide 3-16), the IC50 on PCSK9 (setting [6]) is greater than 50 µM; on PCSK9Δhelix [2] (setting [7]), 1.9 µM; with His-EGF(A)-Fc (setting [8]), greater than 50 µM. Also, the “effect on FXIa-mediated cleavage of the P′ helix of PCSK9-AAA” value (“effect … of the P′ helix of PCSK9-AAA” for short) in assay [3] is listed as “accelerated the cleavage reaction; also recorded: able to increase the FXIa-mediated cleavage; also recorded: strongly accelerated the cleavage”.
For `CC[C@H](C)[C@@H]1NC(=O)[C@H](CCCNC(=N)N)NC(=O)[C@H](CCC(N)=O)NC(=O)[C@H](CC(C)C)NC(=O)[C@H](CC(N)=O)NC(=O)[C@H](Cc2c[nH]c3ccccc23)NC(=O)[C@@H]2CCCN2C(=O)[C@H]([C@@H](C)CC)NC(=O)[C@H](Cc2ccccc2)NC(=O)[C@@H](NC(C)=O)CSSC[C@@H](C(N)=O)NC(=O)[C@H](CC(C)C)NC(=O)[C@H](CC(C)C)NC(=O)CNC1=O` [Compound 31] (Ac-CFIPWNLQRIGLLC-NH2; disulfide 1-14), the Kd at PCSK9Δhelix [1] was 3.01 µM. Further, the figures for the IC50 at PCSK9 (setting [6]), on PCSK9Δhelix [2] (setting [7]) and in the assay with His-EGF(A)-Fc (setting [8]) were greater than 50 µM, 2.4 µM and greater than 50 µM, respectively.
Take `CC[C@H](C)[C@@H]1NC(=O)[C@H](CCCNC(=N)N)NC(=O)[C@H](CCCCN)NC(=O)[C@H](CC(C)C)NC(=O)[C@H](CC(N)=O)NC(=O)[C@H](Cc2c[nH]c3ccccc23)NC(=O)[C@H](CC(C)C)NC(=O)[C@@H](NC(=O)[C@H](Cc2ccccc2)NC(C)=O)CSSC[C@@H](C(=O)N[C@@H](Cc2c[nH]c3ccccc23)C(=O)N[C@@H](Cc2ccccc2)C(N)=O)NC(=O)[C@H](CCC(N)=O)NC(=O)[C@H](C)NC(=O)CNC1=O` [Compound 96] (Ac-FCLWNLKRIGAQCWF-NH2; disulfide 2-13 (inferred)): the Kd on PCSK9Δhelix [1] was determined as 2.5 µM.
In the case of Ac-ALMPWNLVRIGLLR-NH2 [Compound 45], the Kd at PCSK9Δhelix [1] was 8.2 µM. The IC50 was greater than 50 µM on PCSK9 (Example 7); 2.02 µM at PCSK9Δhelix [2] (setting [5]); greater than 50 µM with His-EGF(A)-Fc (counterscreen, Example 7).
For Ac-DLMPWNLVRIGLAR-NH2 [Compound 55], the Kd at PCSK9Δhelix [1] worked out at 2.8 µM. For the same compound, the IC50 on PCSK9 (Example 7) was greater than 50 µM; at PCSK9Δhelix [2] (setting [5]), 9.7 µM; in the assay on His-EGF(A)-Fc (counterscreen, Example 7), greater than 50 µM.
For Ac-DLMPWNLVRIGLLR-NH2 [Compound 35], the IC50 at PCSK9 (Example 7) was greater than 50 µM; at PCSK9Δhelix [2] (setting [5]) it was 4.8 µM; on PCSK9Δhelix [2] (setting [9]), 7.9 ± 0.1 µM; in the assay on His-EGF(A)-Fc (counterscreen, Example 7), greater than 50 µM. Moreover, the Kd at PCSK9Δhelix [4] was 1.38 µM.
For the compound Ac-LMPWNLVRIGLLR-NH2 [Compound 50], the Kd on PCSK9Δhelix [1] was found to be 1.6 µM; at PCSK9Δhelix [4], 0.47 µM. Further, the IC50 was greater than 50 µM at PCSK9 (Example 7); 2.66 µM on PCSK9Δhelix [2] (setting [5]); 3.6 ± 0.2 µM at PCSK9Δhelix [2] (setting [9]); greater than 50 µM in the assay with His-EGF(A)-Fc (counterscreen, Example 7).
For the compound Ac-MPWNLVRIGLLR-NH2 [Compound 51], the figures for the Kd at PCSK9Δhelix [1] and at PCSK9Δhelix [4] were 2.7 µM and 1.4 µM, respectively. Also, the IC50 on PCSK9 (Example 7) is greater than 50 µM; at PCSK9Δhelix [2] (setting [5]) it was 4.69 µM; on PCSK9Δhelix [2] (setting [9]), 6.6 ± 0.3 µM; with His-EGF(A)-Fc (counterscreen, Example 7), greater than 50 µM.
In the case of “Ac-TVATSAEEYLLWV-NH2 [Pep2-8-ctrl, reference compound]”, the “effect … of the P′ helix of PCSK9-AAA” value in assay [3] is on record as “did not prevent cleavage”; in assay [3] (listed as control peptide) it was “did not inhibit cleavage”.
With Ac-WNLVRIGLLR-NH2 [Compound 53], the Kd on PCSK9Δhelix [1] was 33.8 µM; on PCSK9Δhelix [4] it was 14 µM. The IC50 was greater than 50 µM on PCSK9 (Example 7); 33.1 µM on PCSK9Δhelix [2] (setting [5]); 52.4 ± 3.4 µM at PCSK9Δhelix [2] (setting [9]); greater than 50 µM with His-EGF(A)-Fc (counterscreen, Example 7). For the same compound, on PCSK9Δhelix [4] (Table 10, elimination of Pro4), the “reduction of binding affinity” value came to 10 fold.
On to “EGFA-Fc: Fc fusion protein of the EGFA domain of LDLR”, for which the “effect … of the P′ helix of PCSK9-AAA” value in assay [3] is given as “largely prevented cleavage”.
With H-SGDLMPWNLVRIGLLR-OH [Compound 28], on PCSK9Δhelix [1], the Kd came to 0.856 µM.
